In turn, `COC(=O)c1ccc(-c2nc3cc(C(=O)OC)ccc3o2)cc1` showed a melting point of 195 to 210 °C.
For `Cc1nc(-n2cc(OCc3ccccc3)ccc2=O)sc1C(=O)NCc1ccccc1`, the melting point was in the range of 166 to 167 °C.
The molecule `CC(C=CC(=O)NCCCN1CCCCC1)=CCc1ccc(Cl)c(Cl)c1` displayed a melting point of 50 to 60 °C.
`O=c1cc(-c2n[nH]c3ccccc23)oc2ccccc12` registered a melting point of 237 to 238 °C.
As to `COc1ccc(S(=O)(=O)C(C)(Cc2cccnc2)C(=O)NO)cc1` (stereo not given), the melting point was 98 °C.
With `O=S(=O)(Cl)CCc1ccc(Cl)cc1`, the melting point is 87 to 87.5 °C.
The same measure for `CC1(C)C(=O)N(c2ccc([N+](=O)[O-])c(C(F)(F)F)c2)C(=O)N1CCCCCCN1C(=O)N(c2ccc([N+](=O)[O-])c(C(F)(F)F)c2)C(=O)C1(C)C`: 187 to 188 °C; for `N#Cc1cccc(C(CC(=O)O)N2C(=O)c3ccccc3C2=O)c1` (stereo not given): 217 to 220 °C; for `COc1cc(OC)nc(Oc2cccc(Oc3nc(OC)cc(OC)n3)c2C=O)n1`: 129 °C.
The molecule `N#CCCNC(=S)C1=CC(CF)(CF)Oc2ccc(C(F)(F)C(F)(F)C(F)(F)F)cc21` gave a melting point of 94 to 95 °C.
The molecule `CC(C)NCC(O)C(Oc1ccccc1)c1ccccc1` (stereo not given) gave a melting point of 95 to 96 °C.
As to `CC(OC(=O)NC1(C(=O)O)CC1)OC(=O)C(C)C` (stereo not given), the melting point lay in the range of 127 to 130 °C.
The same measure for `CCOC(=O)c1ccc(C(F)(F)F)c(OC2CCOC2)n1` (stereo not given): 45 to 45.5 °C; for `CN(NC(=O)c1c(F)cccc1Cl)S(C)(=O)=O`: 135 to 136 °C; for `COc1cc(CNC(=O)c2oc(=O)c3ncccc3c2-c2ccc(C)cc2)cc(OC)c1OC`: 195 to 196 °C.
The same measure for `O=C1CCC(CCC(=O)OCc2ccc(C(F)(F)F)cc2)N1` (stereo not given): 81 to 82 °C; for `N#Cc1ccc(N(Cc2ccc(O)cc2)n2ccnc2)cc1`: 180 °C.
`NCC(=O)c1cccc2c(S(=O)(=O)n3c(CCC(=O)O)cc4cc(Cl)ccc43)cccc12`: the melting point is 130 to 135 °C.
`CC(NC(=O)C1CC(=O)c2cc(F)ccc2O1)c1ccccc1` (single isomer, unassigned; (+)): the melting point is 140 °C.
The molecule `CCOC(=O)C1=C(C)NC(C)=C(C(=O)OCC)C1c1ccc(OCCCN(C)C)c(OC)c1` had a melting point of 62 °C.
As to `CNC(=O)Nc1ccc2[nH]cc(C3CCN(C)CC3)c2n1`, the melting point is 229 to 230 °C.
Molecule `C1=C2c3ccccc3C3CC2(CN1Cc1ccccc1)c1ccccc13` (stereo not given) gave a melting point of 135 to 145 °C.
In the case of `CCCCCCCCOCC(CO)(CO)COCCCCCCCC`, the melting point fell in the range of 30 to 32 °C.
Molecule `CCC(C)(CC)C(=O)C=C(P(=O)(O)O)P(=O)(O)O` returned a melting point of 146 to 147 °C.
`Cc1nccn1C(=O)c1c(Cl)cccc1Cl` came in with a melting point of 116 to 119 °C.
With `COc1nc(C(F)(F)C(F)(F)F)cc(=O)n1-c1cc(OC(C)C)c(Cl)cc1F`, the melting point lay in the range of 79 to 81 °C.
With `CCC1(CC)OC(=O)c2cc(N)ccc21`, the melting point fell in the range of 153 to 154 °C.
`O=C(CSc1ccccc1)Nc1ccccc1C(=O)O`: the melting point was in the range of 166 to 167 °C.
The figure for `O=C(OCc1ccc[nH]c1=O)c1ccc(F)cc1` is 170 to 173 °C.
`C#CCOc1cc(N=C(C=NOC)N2CCCC2)c(F)cc1Cl`: the melting point lay in the range of 73 to 75 °C.
Take `Cc1ccccc1Cc1ccc(Cl)nn1`: the melting point came to 73.5 °C.
`CC1(C)CCC(C)(C)c2cc(OCc3ccc(CN)cc3)ccc21` gave a melting point of 77 to 79 °C.
With `O=C1CCC(c2ccc(-c3ccc(Cl)cc3)o2)O1` (stereo not given), the melting point lay within 100 to 101 °C.
The figure for `CCC(=O)COc1ccc(CC2SC(=O)N(C(c3ccccc3)(c3ccccc3)c3ccccc3)C2=O)cc1` (stereo not given) is 155 to 156 °C; for `NS(=O)(=O)c1ccc(-n2nc(C(F)(F)F)cc2-c2ccc(F)cc2)cc1` it is 165 to 166 °C; for `CCC(C)Nc1c(-c2c(F)cc(F)cc2F)c(F)nc2ncncc12` (stereo not given) it is 199 °C.
The molecule `O=C(O)Cc1cccc(Oc2cccc(Cl)c2)c1O` showed a melting point of 99 to 102 °C.
`CCn1c2ccccc2c2cc(OC)c(C(=O)O)cc21` came in with a melting point of 130 to 147 °C.
`O=C(Nc1ccccc1)Nc1cccc(-c2ccc(CC3SC(=O)NC3=O)cc2)c1` (stereo not given) had a melting point of 185 °C.
`O=C1Nc2ccc(Cl)cc2C1c1ccccc1Cl` (stereo not given) had a melting point of 198 to 200 °C.
For `Cc1ccc(/C=C/C2=CCN(Cc3c[nH]c4ncccc34)CC2)cc1`, the melting point was 209 to 212 °C.
As for `O=c1ccc(N2CCC(CCCO)CC2)n[nH]1`, the melting point is 174 °C.
For the molecule `COc1ccc(C(C#Cc2ccccc2)CC(C)=O)cc1OC1CCCC1` (racemic), the melting point was 62 to 64 °C.
Molecule `CC(C)(Oc1ccc(Cl)cc1)C(=O)N1[C@@H](C(=O)O)C(C)(C)S[C@H]1c1ccccc1` returned a melting point of 177 to 181 °C.
Molecule `CC(Oc1ccccc1-c1ccc(Cl)c(C(=O)NCC23CC4CC(CC(C4)C2)C3)c1)C(=O)O` (stereo not given) came in with a melting point of 107 to 110 °C.
In the case of `CC(C)CN1C(=O)c2cnc(-c3ccccc3)nc2N(C(=O)CN2CCCCC2)c2ccccc21`, the melting point was in the range of 193 to 194 °C.
`CCCCc1nn(-c2cc(NC(=O)COCC)ccc2Cl)c(=O)n1Cc1ccc(-c2ccccc2S(=O)(=O)NC(=O)OC(C)(C)C)cc1F` had a melting point of 100 to 102 °C.
In the case of `Cc1cccc2nc3c(nc12)C=CCC3=O`, the melting point lay within 133 to 135 °C.
In turn, `Brc1ccc2cc(Nc3ccccc3)ccc2c1` returned a melting point of 126 to 128 °C.
The molecule `O=C(O)c1cc(-c2ccc(-c3ccc(C(F)(F)F)cc3)o2)ccc1O` registered a melting point of 272 to 273 °C.
The same measure for `CS(=O)(=O)N(C(=O)c1ccccc1)c1cc2occc(=O)c2cc1Oc1ccccc1`: 164 to 166 °C; for `Cc1c(NC(=O)c2ccc(-c3ccc(F)cc3)cc2)ccc2cc(CN3CCCCCC3)cnc12`: 166 to 168 °C; for `CN1CC=CC(c2cc3ccccc3o2)C1` (stereo not given): 63 °C.
Regarding `O=C(OCc1ccccc1)N1CCC(O)(Cn2nc(-c3c(-c4ccccc4)nn4ccccc34)ccc2=O)CC1`, the melting point lay in the range of 176 to 177 °C.
`O=[N+]([O-])c1cn(C2OC(CO)C(O)C2O)nn1` (stereo not given) returned a melting point of 172 to 174 °C.
`O=C(O)c1cccc(-c2cccc3oc(Cc4cccc(C(F)(F)F)c4)nc23)c1` displayed a melting point of 165 to 166 °C.
For the molecule `O=C(Nc1ccccc1)C1=CNCCC1`, the melting point lay in the range of 209 to 212 °C.
`CNC(=O)C(N)C(N)=O` (stereo not given) registered a melting point of 121 to 122 °C.
Turning to `O=C1C(=O)c2c(nc3cc(Cl)ccn23)-c2ccccc21`, the melting point was > 300 °C.
On to `OCC1=C(c2ccc3sccc3c2)N2CCN=C2S1`, for which the melting point lay within 149 to 150 °C.
For `COc1ccc(C=C2Cc3c(C)cc(C)c(O)c3C2=O)cc1`, the melting point was 192 to 193 °C.
`Oc1ccc2cc(-c3cc4ccccc4s3)ccc2c1Cl` displayed a melting point of 220 to 221 °C.
On to `COc1cc2c(cc1OC)S(=O)CCC(C(=O)N1CCN(C(=O)c3cc(OC)c(OC)c(OC)c3)CC1)=C2` (stereo not given), for which the melting point stood at 138 °C.
The molecule `CCOC(=O)C(O)=Cc1ccc(Oc2ccccc2)nn1` returned a melting point of 127 to 128 °C.
Molecule `CCc1cc2c(s1)N=C(NNC(=O)NC)CN=C2c1ccccc1Cl` came in with a melting point of 213 to 215 °C.
The same measure for `CC1(C)CC(=C(c2ccc(O)cc2)c2ccc(OCCO)cc2)CC(C)(C)C1`: 154 to 155 °C; for `C=C(C)C(=O)OCCOC(Cl)C(Cl)(Cl)Cl` (stereo not given): 44 to 45 °C; for `COc1ccnc(CO)c1Cl`: 103 to 105 °C.
In the case of `Cc1cccc(-c2ccc(S(=O)(=O)N3c4ccccc4CC3C(=O)O)cc2)c1` (stereo not given), the melting point lay within 123 to 128 °C.
For `CS(=O)(=O)c1ccc(C(CC2CCCC2)C(=O)Nc2ccc3ccccc3n2)cc1Br` (stereo not given), the melting point was 95 to 100 °C.
Take `COc1ccc(C)cc1NC(=O)Nc1ccc(C2=CCN(C(=O)Nc3ccc(OCCO)cc3Cl)CC2)cc1`: the melting point lay in the range of 117 to 120 °C.
The molecule `O=C1N(Cc2ccc3nsnc3c2)c2ccccc2C12COc1cc3c(cc12)OCCO3` (stereo not given) returned a melting point of 189 to 191 °C.
Regarding `CCCc1ccc(C(=O)O)c(F)c1F`, the melting point came to 69 °C.
The same measure for `Cc1ccc(S(=O)c2cccc(-c3nc(=O)c4ccccc4s3)n2)cc1` (stereo not given): 228 °C; for `CCn1c(=O)n(-c2ccc(Oc3nc4cccnc4n3C)cc2)c2nccc(C(F)(F)F)c21`: 244 to 246 °C; for `N#Cc1nc(Cl)c(Oc2ccccc2)nc1C#N`: 115 to 118 °C.
For the molecule `CCC1(O)NC(=O)C=C1C` (stereo not given), the melting point fell in the range of 182 to 186 °C.
The figure for `Clc1cccc(NC2=Nc3ccc(Cl)cc3CS2)c1` is 174 to 175 °C; for `COC(=O)CCc1cc2ccccc2n1S(=O)(=O)c1ccccc1` it is 95 to 99 °C.
Turning to `Cn1ccnc1Sc1ccc(Nc2c(C#N)cnc3cc(/C=C/CCN4CCCCC4)ccc23)cc1Cl`, the melting point lay in the range of 205 to 210 °C.
Molecule `CC1Cc2cc(S(N)(=O)=O)cc(C(=O)NCC3CCCN3C)c2O1` (stereo not given) returned a melting point of 187 to 189 °C.
Take `CCn1c2cc(C)ccc2c2c3ccccc3ccc21`: the melting point was in the range of 123 to 124 °C.
`O=C(NCc1ccccc1)OCC(=O)c1ccccc1` came in with a melting point of 110 to 112 °C.
The same measure for `Cc1c[nH]c2ccc(-c3nn(C(C)c4oc5ccccc5c(=O)c4-c4cccc(F)c4)c4ncnc(N)c34)cc12` (stereo not given): 171 to 173 °C.
The molecule `CCCc1ccc(C=Nc2ccc(C#N)cc2)cc1` registered a melting point of 64.8 to 65.5 °C.
`OCCNc1c(Br)cnc2cc(Cl)ccc12` showed a melting point of 169 to 170 °C.
The figure for `O=C(c1ccccc1)c1ccc(Cl)nc1` is 39 to 40 °C; for `CCC12CCC3C4CCC(=O)C=C4CCC3C1CCC2=O` (stereo not given) it is 156 to 158 °C.
In turn, `O=c1oc(-c2ccc(OCCCC(F)(F)F)cc2)nn1CCO` displayed a melting point of 118 °C.
Regarding `Nc1nc(=O)n(CC2CC2)cc1F`, the melting point was in the range of 224 to 226 °C.
